Measurements reported in ChEMBL document CHEMBL1201862, “PubChem BioAssay data set” (2004).
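Following 48 hours of exposure in 96-well plates, responses at five concentrations were used to interpolate endpoints linearly. GI50: concentration for 50% inhibition of growth.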 The source made the active and inactive calls. No stated cut-off is given here; in the data, active = GI50 up to about 1.1 µM and inactive = higher.

Tests used:
Test in all cases: NCI anticancer screen, dose series, 48 h
SF-539 = tested on: SF-539
KM12 = tested on: KM12
OVCAR-3 = tested on: OVCAR-3
SK-MEL-5 = tested on: SK-MEL-5
SK-MEL-28 = tested on: SK-MEL-28
HT-29 = tested on: HT-29
K562 = tested on: K562
SK-OV-3 = tested on: SK-OV-3
MCF7 = tested on: MCF7
ACHN = tested on: ACHN
OVCAR-4 = tested on: OVCAR-4
T47D = tested on: T47D
A498 = tested on: A498
HCT-116 = tested on: HCT-116
CAKI-1 = tested on: CAKI-1
SF-295 = tested on: SF-295
UACC-62 = tested on: UACC-62
OVCAR-8 = tested on: OVCAR-8
SNB-75 = tested on: SNB-75
Malme-3M = tested on: Malme-3M

| Compound | GI50 (SF-539) | GI50 (KM12) | GI50 (OVCAR-3) | GI50 (SK-MEL-5) | GI50 (SK-MEL-28) | GI50 (HT-29) | GI50 (K562) | GI50 (SK-OV-3) | GI50 (MCF7) | GI50 (ACHN) | GI50 (OVCAR-4) | GI50 (T47D) | GI50 (A498) | GI50 (HCT-116) | GI50 (CAKI-1) | GI50 (SF-295) | GI50 (UACC-62) | GI50 (OVCAR-8) | GI50 (SNB-75) | GI50 (Malme-3M) |
| --- | --- | --- | --- | --- | --- | --- | --- | --- | --- | --- | --- | --- | --- | --- | --- | --- | --- | --- | --- | --- |
| CNC(=O)c1nn[nH]c1Sc1c([N+](=O)[O-])ncn1C | > 100 µM (inactive) | > 100 µM (inactive) | > 100 µM (inactive) | > 100 µM (inactive) | > 100 µM (inactive) | > 100 µM (inactive) | > 100 µM (inactive) | > 100 µM (inactive) | > 100 µM (inactive) | > 100 µM (inactive) | > 100 µM (inactive) | > 100 µM (inactive) | > 100 µM (inactive) | > 100 µM (inactive) | > 100 µM (inactive) | > 100 µM (inactive) | > 100 µM (inactive) | > 100 µM (inactive) |  |  |
| Cc1ccnc2c1ccc1nc3ccccc3n12 | 58.9 µM (inactive) | 22 µM (inactive) | > 100 µM (inactive) | 17.7 µM (inactive) |  | 77.4 µM (inactive) | > 100 µM (inactive) |  | 4.45 µM (inactive) |  | 37.8 µM (inactive) | 18.5 µM (inactive) | > 100 µM (inactive) | 28.1 µM (inactive) | 11.4 µM (inactive) | 87.7 µM (inactive) | > 100 µM (inactive) | 28.9 µM (inactive) | 31.7 µM (inactive) |  |
| COc1cc([C@@H]2c3cc4c(cc3[C@@H](OC3OC5COC(C)OC5C(OC(=O)CN5CCN(C)CC5)C3OC(=O)CN3CCN(C)CC3)C3COC(=O)[C@@H]32)OCO4)cc(OC)c1OC(=O)CN1CCN(C)CC1 (stereo partly specified) | 23.1 µM (inactive) | > 100 µM (inactive) | > 100 µM (inactive) | 43.5 µM (inactive) |  | > 100 µM (inactive) | 67.5 µM (inactive) | > 100 µM (inactive) | 10.8 µM (inactive) | 54.5 µM (inactive) | > 100 µM (inactive) | 71.1 µM (inactive) |  | 25.5 µM (inactive) | 37.7 µM (inactive) | 38.1 µM (inactive) | > 100 µM (inactive) | 60.8 µM (inactive) | 28.5 µM (inactive) | 61.7 µM (inactive) |
| CCN(CC)CCC(=O)c1ccc(Oc2ccc(C)cc2)cc1 | 18.8 µM (inactive) | 10.9 µM (inactive) | 17.6 µM (inactive) |  | 16.9 µM (inactive) | 18.9 µM (inactive) | 30.5 µM (inactive) | 28.4 µM (inactive) | 17.6 µM (inactive) | 21.1 µM (inactive) | 24.4 µM (inactive) | 18.2 µM (inactive) |  | 17.3 µM (inactive) | 17.3 µM (inactive) | 17.5 µM (inactive) | 17.3 µM (inactive) | 19.8 µM (inactive) | 20.2 µM (inactive) | 17.5 µM (inactive) |
| CC1=NN(C(=O)CC(=O)Nc2cccc(Cl)c2)C(=O)C1/N=N\c1ccc(S(=O)(=O)c2ccc(/N=N/C3C(=O)N(C(=O)CC(=O)Nc4cccc(Cl)c4)N=C3C)cc2)cc1 (stereo unspecified) | 22.6 µM (inactive) | > 100 µM (inactive) | > 100 µM (inactive) | 40.8 µM (inactive) | > 100 µM (inactive) | > 100 µM (inactive) | > 100 µM (inactive) | > 100 µM (inactive) | > 100 µM (inactive) | > 100 µM (inactive) | > 100 µM (inactive) | > 100 µM (inactive) |  | > 100 µM (inactive) | > 100 µM (inactive) | > 100 µM (inactive) | > 100 µM (inactive) | > 100 µM (inactive) | > 100 µM (inactive) | > 100 µM (inactive) |
| CCCCOC(=O)c1cc(C(=CCC[C@H]2CC[C@@]3(C)[C@@H](CC[C@@H]4[C@@H]3CC[C@]3(C)[C@@H](C(C)CCCC(C)C)CC[C@@H]43)C2)c2cc(Cl)c(O)c(C(=O)OCCCC)c2)cc(Cl)c1O (stereo partly specified) |  | > 50 µM (inactive) | > 50 µM (inactive) | > 50 µM (inactive) |  | > 50 µM (inactive) | > 5 µM (inactive) |  |  |  | > 50 µM (inactive) | > 50 µM (inactive) | > 50 µM (inactive) | > 50 µM (inactive) | > 50 µM (inactive) |  | > 50 µM (inactive) | > 50 µM (inactive) | > 50 µM (inactive) |  |
| O=c1[nH]c(Nc2nc3ccccc3[nH]2)nc2c1CCC2 | 42.7 µM (inactive) |  | > 100 µM (inactive) | > 100 µM (inactive) | 82 µM (inactive) | > 100 µM (inactive) | > 100 µM (inactive) | 41.8 µM (inactive) | > 100 µM (inactive) | > 100 µM (inactive) | 90.2 µM (inactive) |  | > 100 µM (inactive) | > 100 µM (inactive) | > 100 µM (inactive) | 76.9 µM (inactive) | > 100 µM (inactive) | 42.6 µM (inactive) | 30 µM (inactive) | > 100 µM (inactive) |
| CCOC(=O)CC(=O)N(c1ccc(OC)cc1)C(C(=O)OC)c1ccccc1 (stereo unspecified) | > 100 µM (inactive) | > 100 µM (inactive) | > 100 µM (inactive) | > 100 µM (inactive) | > 100 µM (inactive) | > 100 µM (inactive) | > 100 µM (inactive) |  | > 100 µM (inactive) | > 100 µM (inactive) |  | > 100 µM (inactive) |  | > 100 µM (inactive) | > 100 µM (inactive) | > 100 µM (inactive) | > 100 µM (inactive) | > 100 µM (inactive) | 61 µM (inactive) |  |
| CC(=O)Oc1c(C)cc2c(c1C)C(C)(C)CN2C(=O)C(C)(C)C | > 100 µM (inactive) | > 100 µM (inactive) | 25.2 µM (inactive) | 42.3 µM (inactive) | > 100 µM (inactive) | 33.1 µM (inactive) | 51.9 µM (inactive) | > 100 µM (inactive) | > 100 µM (inactive) | > 100 µM (inactive) | 71.8 µM (inactive) | 31.6 µM (inactive) | 55.6 µM (inactive) | 67.9 µM (inactive) |  | > 100 µM (inactive) | > 100 µM (inactive) | > 100 µM (inactive) | 0.504 µM (active) |  |
| CCOC(=O)c1cnc2oc(/C=N/N3CC(CN4CCOCC4)OC3=O)cc2c1O (stereo unspecified) | > 100 µM (inactive) | > 100 µM (inactive) | > 100 µM (inactive) | > 100 µM (inactive) | > 100 µM (inactive) | > 100 µM (inactive) | > 100 µM (inactive) | > 100 µM (inactive) | > 100 µM (inactive) | > 100 µM (inactive) | > 100 µM (inactive) | > 100 µM (inactive) |  | > 100 µM (inactive) | > 100 µM (inactive) | > 100 µM (inactive) | > 100 µM (inactive) | > 100 µM (inactive) | > 100 µM (inactive) | > 100 µM (inactive) |
| O=C1CN(c2cccc(Cl)c2)C(=O)CN1CCN1CC(=O)N(c2cccc(Cl)c2)CC1=O | > 100 µM (inactive) | > 100 µM (inactive) | > 100 µM (inactive) | > 100 µM (inactive) | > 100 µM (inactive) | > 100 µM (inactive) |  | > 100 µM (inactive) | > 100 µM (inactive) | > 100 µM (inactive) | > 100 µM (inactive) |  | > 100 µM (inactive) | > 100 µM (inactive) | > 100 µM (inactive) | > 100 µM (inactive) | > 100 µM (inactive) | > 100 µM (inactive) | > 100 µM (inactive) | > 100 µM (inactive) |
